According to US8551984B2, “Aminopyrimidines as SYK inhibitors” (Merck Sharp & Dohme Corp., priority 2009, dated 2013):

target: recombinant human SYK (GST-hSYK fusion protein) (Homo sapiens, UniProt P43405); assay: biochemical; settings: rhSYK Activity (IC50), recombinant human GST-SYK 5 pM, ATP 25 μM, biotinylated substrate peptide 250 nM, HTRF, 10-dose titration
From the text: Homogeneous Time-Resolved Fluorescence (HTRF) Assay for the Recombinant Human SYK Enzyme:

SMILES	IC50
CCOC(=O)C(C)NC(=O)NCc1ncc(-c2cc(C)cc(Nc3nccc(C(F)(F)F)n3)c2)s1 (stereo not shown) [Example 88A-64]	< 100 nM
Cc1cc(Nc2nccc(C(F)(F)F)n2)cc(-c2cnc(CN3CCCC(C)(O)C3)s2)c1 (stereo not shown) [Example 88B-1]	< 100 nM
Cc1cc(Nc2nccc(C(F)(F)F)n2)cc(-c2cnc(CN3CC[S+]([O-])CC3)s2)c1 [Example 88B-3]	< 100 nM
Cc1cc(Nc2nccc(C(F)(F)F)n2)cc(-c2cnc(CN3CCC[S+]([O-])CC3)s2)c1 (stereo not shown) [Example 88B-4]	< 100 nM
Cc1cc(Nc2nccc(C(F)(F)F)n2)cc(-c2cnc(CN3CCC(C)(O)CC3)s2)c1 [Example 88B-5]	< 100 nM
CC(=O)N1CCN(Cc2ncc(-c3cc(C)cc(Nc4nccc(C(F)(F)F)n4)c3)s2)CC1 [Example 88B-6]	< 100 nM
Cc1cc(Nc2nccc(C(F)(F)F)n2)cc(-c2cnc(CN3CCN(S(C)(=O)=O)CC3)s2)c1 [Example 88B-9]	< 100 nM
Cc1cc(Nc2nccc(C(F)(F)F)n2)cc(-c2cnc(CN3CCCC(C(N)=O)C3)s2)c1 (stereo not shown) [Example 88B-10]	< 100 nM
Cc1cc(Nc2nccc(C(F)(F)F)n2)cc(-c2cnc(CN3CCOC(CCO)C3)s2)c1 (stereo not shown) [Example 88B-11]	< 100 nM
COCC1CN(Cc2ncc(-c3cc(C)cc(Nc4nccc(C(F)(F)F)n4)c3)s2)CCO1 (stereo not shown) [Example 88B-13]	< 100 nM
Cc1cc(Nc2nccc(C(F)(F)F)n2)cc(-c2cnc(CN3CCOC(CC(=O)O)C3)s2)c1 (stereo not shown) [Example 88B-14]	< 100 nM
Cc1cc(Nc2nccc(C(F)(F)F)n2)cc(-c2cnc(CN3CC(COP(C)(C)=O)C3)s2)c1 [Example 88B-16]	< 100 nM
Cc1cc(Nc2nccc(C(F)(F)F)n2)cc(-c2cnc(CO)s2)c1 [Example 89, [5-(3-methyl-5-{[4-(trifluoromethyl)pyrimidin-2-yl]amino}phenyl)-1,3-thiazol-2-yl]methanol]	< 100 nM
Cc1cc(Nc2nccc(C(F)(F)F)n2)cc(-c2cnc(CBr)s2)c1 [Example 90, N-{3-[2-(bromomethyl)-1,3-thiazol-5-yl]-5-methylphenyl}-4-(trifluoromethyl)pyrimidin-2-amine]	< 100 nM
Cc1cc(Nc2nccc(C(F)(F)F)n2)cc(-c2cnc(CC3(C(=O)O)CCNC3=O)s2)c1 (stereo not shown) [Example 92, 3-{[5-(3-methyl-5-{[4-(trifluoromethyl)pyrimidin-2-yl]amino}phenyl)-1,3-thiazol-2-yl]methyl}-2-oxopyrrolidine-3-carboxylic acid]	< 100 nM
Cc1cc(Nc2nccc(C(F)(F)F)n2)cc(-c2cnc(CN3CCCC3=O)s2)c1 [Example 92-2]	< 100 nM
Cc1cc(Nc2nccc(OC3CNC3)n2)cc(-c2cnc(C3(O)CCC3)s2)c1 [Example 93, 1-[5-(3-{[4-(azetidin-3-yloxy)pyrimidin-2-yl]amino}-5-methylphenyl)-1,3-thiazol-2-yl]cyclobutanol]	< 100 nM

SMILES	IC50
Cc1cc(Nc2nccc(OC3COC3)n2)cc(-c2cnc(C3(O)CCC3)s2)c1 [Example 94, 1-[5-(3-methyl-5-{[4-(oxetan-3-yloxy)pyrimidin-2-yl]amino}phenyl)-1,3-thiazol-2-yl]cyclobutanol]	< 100 nM
Cc1cc(Nc2nccc(OCc3ccccn3)n2)cc(-c2cnc(C3(O)CCC3)s2)c1 [Example 94A-3]	< 100 nM
Cc1cc(Nc2nccc(OCCC3CCOCC3)n2)cc(-c2cnc(C3(O)CCC3)s2)c1 [Example 94A-5]	< 100 nM
Cc1cc(Nc2nccc(OCCOCc3ccccc3)n2)cc(-c2cnc(C3(O)CCC3)s2)c1 [Example 94A-9]	100 to 1000 nM
Cc1cc(Nc2nccc(O[C@H]3CCOC3)n2)cc(-c2cnc(C3(O)CCC3)s2)c1 [Example 94A-10]	< 100 nM
Cc1cc(Nc2nccc(OCCCCOCc3ccccc3)n2)cc(-c2cnc(C3(O)CCC3)s2)c1 [Example 94A-11]	100 to 1000 nM
Cc1cc(Nc2nccc(OCCCOCc3ccccc3)n2)cc(-c2cnc(C3(O)CCC3)s2)c1 [Example 94A-13]	100 to 1000 nM
Cc1cc(Nc2nccc(OCC3CCOC3)n2)cc(-c2cnc(C3(O)CCC3)s2)c1 (stereo not shown) [Example 94A-15]	< 100 nM
Cc1cc(Nc2nccc(OC3CCC(N)CC3)n2)cc(-c2cnc(C3(O)CCC3)s2)c1 (stereo not shown) [Example 94A-18]	< 100 nM
CNCCOc1ccnc(Nc2cc(C)cc(-c3cnc(C4(O)CCC4)s3)c2)n1 [Example 94A-23]	100 to 1000 nM
Cc1cc(Nc2nccc(OC3CCOC3)n2)cc(-c2cnc(C3(O)CCC3)s2)c1 (stereo not shown) [Example 94A-29]	< 100 nM
Cc1cc(Nc2nccc(OC3CCCC3)n2)cc(-c2cnc(C3(O)CCC3)s2)c1 [Example 94A-31]	< 100 nM
Cc1cc(Nc2nccc(OCc3ccccc3)n2)cc(-c2cnc(C(C)(O)C(F)(F)F)s2)c1 (stereo not shown) [Example 94B-1, 2-[5-(3-{[4-(benzyloxy)pyrimidin-2-yl]-amino}-5-methylphenyl)-1,3-thiazol-2-yl]-1,1,1-trifluoropropan-2-ol]	< 100 nM
Cc1cc(Nc2nccc(OC3CCC(C)(O)CC3)n2)cc(-c2cnc(C(C)(O)C(F)(F)F)s2)c1 (stereo not shown) [Example 94B-2]	< 100 nM
Cc1cc(Nc2nccc(OC3CCNCC3F)n2)cc(-c2cnc(C(C)(O)C(F)(F)F)s2)c1 (stereo not shown) [Example 94B-4]	< 100 nM
Cc1cc(Nc2nccc(O[C@H]3CCNC3)n2)cc(-c2cnc(C(C)(O)C(F)(F)F)s2)c1 (stereo partly shown) [Example 94B-9]	< 100 nM

The next lines start with the values.

IC50	SMILES
< 100 nM	Cc1cc(Nc2nccc(C(F)(F)F)n2)cc(-c2cnc(CN3CCC(C)(O)C3)s2)c1 (stereo not shown) [Example 88B-2]
< 100 nM	Cc1cc(Nc2nccc(C(F)(F)F)n2)cc(-c2cnc(CN3CCNC(=O)CC3)s2)c1 [Example 88B-7]
< 100 nM	Cc1cc(Nc2nccc(C(F)(F)F)n2)cc(-c2cnc(CN3CCCNC(=O)C3)s2)c1 [Example 88B-8]
< 100 nM	Cc1cc(Nc2nccc(C(F)(F)F)n2)cc(-c2cnc(CN3CCC(P(=O)(O)O)C3)s2)c1 (stereo not shown) [Example 88B-15]
< 100 nM	Cc1cc(Nc2nccc(C(F)(F)F)n2)cc(-c2cnc(CN3CCP(=O)(C(C)C)CC3)s2)c1 [Example 88B-17]
< 100 nM	CCOC(=O)C1(Cc2ncc(-c3cc(C)cc(Nc4nccc(C(F)(F)F)n4)c3)s2)CCNC1=O (stereo not shown) [Example 91, Ethyl 3-{[5-(3-methyl-5-{[4-(trifluoromethyl)pyrimidin-2-yl]amino}phenyl)-1,3-thiazol-2-yl]-methyl}-2-oxopyrrolidine-3-carboxylate]
< 100 nM	Cc1cc(Nc2nccc(C(F)(F)F)n2)cc(-c2cnc(CN3CCOC3=O)s2)c1 [Example 92-1]
< 100 nM	Cc1cc(Nc2nccc(C(F)(F)F)n2)cc(-c2cnc(CN3CCN(C)C3=O)s2)c1 [Example 92-3]
< 100 nM	Cc1cc(Nc2nccc(OCc3ccncc3)n2)cc(-c2cnc(C3(O)CCC3)s2)c1 [Example 94A-1]
< 100 nM	Cc1cc(Nc2nccc(OCc3cccnc3)n2)cc(-c2cnc(C3(O)CCC3)s2)c1 [Example 94A-2]
< 100 nM	Cc1cc(Nc2nccc(OCC3COCCO3)n2)cc(-c2cnc(C3(O)CCC3)s2)c1 (stereo not shown) [Example 94A-4]
100 to 1000 nM	Cc1cc(Nc2ncc(F)c(OC3CCOC3)n2)cc(-c2cnc(C3(O)CCC3)s2)c1 (stereo not shown) [Example 94A-6]
< 100 nM	Cc1cc(Nc2nccc(OCC3CCOCC3)n2)cc(-c2cnc(C3(O)CCC3)s2)c1 [Example 94A-7]
< 100 nM	Cc1cc(Nc2nccc(O[C@@H]3CCOC3)n2)cc(-c2cnc(C3(O)CCC3)s2)c1 [Example 94A-8]
< 100 nM	COCCCOc1ccnc(Nc2cc(C)cc(-c3cnc(C4(O)CCC4)s3)c2)n1 [Example 94A-12]
< 100 nM	COCCOc1ccnc(Nc2cc(C)cc(-c3cnc(C4(O)CCC4)s3)c2)n1 [Example 94A-14]

IC50	SMILES
100 to 1000 nM	CCOC(=O)C1CCC(Oc2ccnc(Nc3cc(C)cc(-c4cnc(C5(O)CCC5)s4)c3)n2)CC1 (stereo not shown) [Example 94A-16, ethyl 4-{[2-({3-[2-(1-hydroxycyclobutyl)-1,3-thiazol-5-yl]-5-methylphenyl}-amino)pyrimidin-4-yl]oxy}cyclohexanecarboxylate]
< 100 nM	Cc1cc(Nc2nccc(OC3CCOCC3)n2)cc(-c2cnc(C3(O)CCC3)s2)c1 [Example 94A-17]
< 100 nM	Cc1cc(Nc2nccc(OC3CCNC(C)CC3)n2)cc(-c2cnc(C3(O)CCC3)s2)c1 (stereo not shown) [Example 94A-20]
< 100 nM	Cc1cc(Nc2nccc(OC3CCCNCC3)n2)cc(-c2cnc(C3(O)CCC3)s2)c1 (stereo not shown) [Example 94A-21]
100 to 1000 nM	Cc1cc(Nc2nccc(O[C@H](C)C(=O)O)n2)cc(-c2cnc(C3(O)CCC3)s2)c1 [Example 94A-22]
100 to 1000 nM	Cc1cc(Nc2nccc(OCC3CCNCC3)n2)cc(-c2cnc(C3(O)CCC3)s2)c1 [Example 94A-24]
100 to 1000 nM	Cc1cc(Nc2nccc(OC(C)(C)C(=O)OC(C)(C)C)n2)cc(-c2cnc(C3(O)CCC3)s2)c1 [Example 94A-25, tert-butyl 2-{[2-({3-[2-(1-hydroxycyclobutyl)-1,3-thiazol-5-yl]-5-methylphenyl}amino)-pyrimidin-4-yl]oxy}-2-methylpropanoate]
< 100 nM	Cc1cc(Nc2nccc(OC3CCCNC3)n2)cc(-c2cnc(C3(O)CCC3)s2)c1 (stereo not shown) [Example 94A-26]
< 100 nM	Cc1cc(Nc2nccc(OCC3CNC3)n2)cc(-c2cnc(C3(O)CCC3)s2)c1 [Example 94A-27]
< 100 nM	Cc1cc(Nc2nccc(OC3CCC3)n2)cc(-c2cnc(C3(O)CCC3)s2)c1 [Example 94A-30]
100 to 1000 nM	Cc1cc(Nc2nccc(OC3CCCCC3)n2)cc(-c2cnc(C3(O)CCC3)s2)c1 [Example 94A-32]
< 100 nM	Cc1cc(Nc2nccc(OC3CCNCC3)n2)cc(-c2cnc(C3(O)CCC3)s2)c1 [Example 94A-33]
100 to 1000 nM	Cc1cc(Nc2nccc(OC3CCC(OCc4ccccc4)CC3)n2)cc(-c2cnc(C(C)(O)C(F)(F)F)s2)c1 (stereo not shown) [Example 94B-3, 2-(5-{3-[(4-{[4-(benzyloxy)cyclohexyl]oxy}pyrimidin-2-yl)amino]-5-methylphenyl}-1,3-thiazol-2-yl)-1,1,1-trifluoropropan-2-ol]
< 100 nM	Cc1cc(Nc2nccc(OC3CCNCC3)n2)cc(-c2cnc(C(C)(O)C(F)(F)F)s2)c1 (stereo not shown) [Example 94B-6]
< 100 nM	CC(O)c1ncc(-c2cccc(Nc3nccc(OC4CCNCC4)n3)c2)s1 (stereo not shown) [Example 94B-10]
